Target: T1, MELK (Homo sapiens, UniProt Q14680)
T1 construct: purchased Thermo Fisher Scientific (Life Technologies) SelectScreen
Test: SelectScreen Z'LYTE
Assay type: biochemical
In short: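 Percent values come from Thermo SelectScreen profiling of NU5455, combining activity and binding assays. CSF1R was run in Z'LYTE format at Km app ATP, and CAMK1 in Adapta format with ATP listed at 10.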

T1 sequence (Q14680 whole entry): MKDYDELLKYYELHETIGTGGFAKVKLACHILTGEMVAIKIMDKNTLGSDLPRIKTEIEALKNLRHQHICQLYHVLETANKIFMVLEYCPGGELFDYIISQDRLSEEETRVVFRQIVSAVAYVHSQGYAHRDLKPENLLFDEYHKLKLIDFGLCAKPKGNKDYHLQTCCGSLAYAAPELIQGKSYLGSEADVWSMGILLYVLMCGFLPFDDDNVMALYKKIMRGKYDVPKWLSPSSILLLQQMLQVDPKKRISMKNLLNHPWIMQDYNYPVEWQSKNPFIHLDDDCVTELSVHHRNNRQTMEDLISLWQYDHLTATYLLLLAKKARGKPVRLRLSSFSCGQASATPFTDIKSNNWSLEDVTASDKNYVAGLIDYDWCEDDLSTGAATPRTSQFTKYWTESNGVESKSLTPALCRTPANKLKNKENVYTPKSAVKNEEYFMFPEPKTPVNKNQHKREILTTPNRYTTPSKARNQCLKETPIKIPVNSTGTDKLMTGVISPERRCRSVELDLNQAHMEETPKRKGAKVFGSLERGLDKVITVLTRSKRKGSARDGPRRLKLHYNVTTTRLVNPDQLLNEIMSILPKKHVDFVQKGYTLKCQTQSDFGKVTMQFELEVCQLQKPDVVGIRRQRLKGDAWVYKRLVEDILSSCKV

CN(C(=O)CN1CCOCC1)c1ccc2sc3c(-c4cccc5c(=O)cc(N6CC7CCC(C6)O7)oc45)cccc3c2c1 [NU5455]
inhibition at 1 µM: -11.8%

— article PMC6934184, “Selective DNA-PKcs inhibition extends the therapeutic index of localized radiotherapy and chemotherapy” (The Journal of Clinical Investigation, 2019)
